Measured values published in US20250171399A1, “PYRROLIDINE COMPOUNDS” (Eli Lilly and Company, priority 2022, published 2025).
Structures can show the parent of a compound that is named as a salt.

Target: T1, human Apo(a) protein (Homo sapiens, UniProt P08519)
T1 sequence (P08519 1053-1693 limits assumed): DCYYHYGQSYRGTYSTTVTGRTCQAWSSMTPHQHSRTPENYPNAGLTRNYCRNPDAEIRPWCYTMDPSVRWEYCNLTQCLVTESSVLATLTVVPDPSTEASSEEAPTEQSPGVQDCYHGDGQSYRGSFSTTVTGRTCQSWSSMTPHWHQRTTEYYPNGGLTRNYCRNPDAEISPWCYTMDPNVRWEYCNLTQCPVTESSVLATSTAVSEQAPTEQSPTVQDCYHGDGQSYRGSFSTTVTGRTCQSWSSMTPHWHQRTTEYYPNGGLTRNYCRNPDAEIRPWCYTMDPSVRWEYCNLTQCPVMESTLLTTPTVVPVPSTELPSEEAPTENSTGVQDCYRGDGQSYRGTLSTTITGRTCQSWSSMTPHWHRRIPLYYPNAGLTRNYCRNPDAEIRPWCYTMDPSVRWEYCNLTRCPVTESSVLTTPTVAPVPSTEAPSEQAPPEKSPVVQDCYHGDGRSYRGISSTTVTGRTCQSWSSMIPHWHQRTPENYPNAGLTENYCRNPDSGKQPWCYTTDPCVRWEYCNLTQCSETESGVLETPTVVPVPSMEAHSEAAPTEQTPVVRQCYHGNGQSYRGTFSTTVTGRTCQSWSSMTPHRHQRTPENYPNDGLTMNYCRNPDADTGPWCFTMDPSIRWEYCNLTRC
Experiment: In vitro Apo(a) binding assay (competitive SPA radioligand binding)
Settings: competitive binding vs tritium-labeled radioligand 0.52 nM; human Apo(a) containing 17 Kringle repeats; 60 min at RT
Protocol: The in vitro binding affinity of compounds to the intended target human Apo(a) protein were tested in a competitive binding assay. Human Apo(a) protein containing 17 Kringle repeats was affinity purified from conditioned media of transiently transfected HEK-293F cells. All reagents were prepared in assay buffer containing 50 mM Tris-HCl pH 7.4, 0.1% BSA. The binding assay was conducted by adding to each well of a clear-bottom plate 50 μL each of (1) test compound in dilution series (final concentration 0.32˜10000 nM), (2) Apo(a) protein (6 ng/well), (3) re-suspended Wheat Germ Agglutinin Polyvinyltoluene SPA beads (20 mg/mL), and (4) the radioligand, tritium-labeled (2S)-3-[3-[2-oxo-3-[3-(tritritiomethoxy)phenyl]imidazolidin-1-yl]phenyl]-2-[(3R)-pyrrolidin-3-yl]propanoic acid hydrochloride (prepared essentially as described in WO 2020/247429; final concentration 0.52 nM). Plates were incubated for 60 min at RT and counted on TRILUX LSC. Non-specific binding, defined as binding in the presence of […] cold (i.e. non-radiolabeled) ligand: (2S)-3-[3-[2-oxo-3-[3-(methoxy)phenyl]imidazolidin-1-yl]phenyl]-2-[(3R)-pyrrolidin-3-yl]propanoic acid hydrochloride (prepared essentially as described in WO 2020/247429) was subtracted to determine specific binding. Data were analyzed by fitting to a standard single site binding model and the IC50 for the Example test compound was determined. […]

- IC50: 4.68 nM
Structure (SMILES): COc1cc(F)cc(CNc2cccc(C[C@H](C(=O)O)[C@H]3CCNC3)c2)c1 [Example 6, (2S)-3-[3-[[(3-Fluoro-5-methoxy-phenyl)methyl]amino]phenyl]-2-[(3R)-pyrrolidin-3-yl]propanoic acid;hydrochloride]
